Experimental data: PMC12040169 (PLOS Biology, 2025)

Assay: in vitro
Conditions: human, hela cells, % viability

Compound | viability at 28.5 h, 10 µM
Cc1nc(-c2cccnc2)sc1C(=O)NC(C)C1CC2CCC1C2 (stereo not shown) [CBK281637] | 84.2%
CCc1nccn1CC(=O)NCC(C)n1nc(C)cc1C (stereo not shown) [CBK281638] | 80.4%
Cc1cc(C)n(C(C)CNC(=O)C(C)Cn2cccn2)n1 (stereo not shown) [CBK281639] | 87.6%
O=C(C1CC2C=CC1C21CC1)N1CCN(c2nccs2)CC1 (stereo not shown) [CBK281640] | 90.4%
O=C(c1ccncc1)N1CCCCC1c1nc2ccccc2[nH]1 (stereo not shown) [CBK281641] | 87.2%
COc1ccc(CCNC(=O)CCn2nc(C)c(Cl)c2C)cc1C [CBK281643] | 89.5%
CCc1cc(CNC(=O)C(c2ccc(F)cc2)N(C)C)on1 (stereo not shown) [CBK281648] | 88.4%
Cc1nc(C)n(CC(=O)N2CCc3sccc3C2c2ccco2)n1 (stereo not shown) [CBK281649] | 98.8%
CC(Cn1cc(Cl)cn1)C(=O)NC(C)C1CC2CCC1C2 (stereo not shown) [CBK281650] | 110%
Cc1cc(C(=O)NC(C)C2CC3CCC2C3)c2cnn(C(C)C)c2n1 (stereo not shown) [CBK281652] | 96%
CCc1nnsc1C(=O)N1CCc2[nH]c3c(C)cccc3c2C1 [CBK281655] | 86.2%
CC(C)C(=O)N1C[C@H]2NC(=O)c3ccccc3C(=O)[C@@]2(C)C1 [CBK281658] | 103%
CC(C)CC(=O)N1C[C@H]2NC(=O)c3ccccc3C(=O)[C@@]2(C)C1 [CBK281659] | 96.1%
CC(C)C(NC(=O)c1cc2c([nH]c1=O)CCC2)c1ccc(F)cc1 (stereo not shown) [CBK281662] | 93.4%
Cn1nccc1CN1CCCC(COc2ccccc2F)C1 (stereo not shown) [CBK281663] | 87.2%
CC(NC(=O)CCc1ccncc1)c1nc2ccccc2s1 (stereo not shown) [CBK281666] | 98.9%
CCc1cc(CNC(=O)C(c2ccc(Cl)cc2)N(C)C)on1 (stereo not shown) [CBK281670] | 96.6%
C[C@]12CN(C(=O)C3CCCC3)C[C@H]1NC(=O)c1ccccc1C2=O [CBK281672] | 95.4%
CC(C)C(=O)N[C@H]1CC[C@]2(CC1)CNC(=O)c1ccccc1O2 [CBK281675] | 103%
CC1CCCN(CC(C)(C)NC(=O)c2cc(C3CC3)on2)C1 (stereo not shown) [CBK281677] | 94.6%
Cc1nonc1CNC(=O)C1CC2C=CC1C21CC1 (stereo not shown) [CBK281678] | 91.4%
CCN1C(=O)c2ccccc2C(=O)[C@@]2(C)CN(C(=O)C(C)C)C[C@@H]12 [CBK281680] | 91.8%
CCC(=O)N[C@H]1CC[C@]2(CC1)CNC(=O)c1ccccc1O2 [CBK281681] | 106%
CC(=O)N(C)[C@H]1CC[C@]2(CC1)CNC(=O)c1ccccc1O2 [CBK281682] | 101%

Compound | viability at 28.5 h, 10 µM
CCC(=O)N(C)[C@H]1CC[C@]2(CC1)CNC(=O)c1ccccc1O2 [CBK281683] | 87.5%
CN1C(=O)c2ccccc2C(=O)[C@@]2(C)CN(C(=O)c3ccccc3)C[C@@H]12 [CBK281685] | 93.2%
Cc1cc2c(cc1NC(=O)[C@@H]1C[C@@H]3C=C[C@H]1C3)n(C)c(=O)n2C [CBK281689] | 106%
CCCC(=O)N(C)C1CCC2(CC1)CNC(=O)c1cc(C)ccc1O2 (stereo not shown) [CBK281694] | 88.3%
CC(C)(C)NC(=O)Cn1cncc1-c1cnn(-c2ccccc2)c1 [CBK281697] | 106%
CN1CCCc2cc(-c3cncn3CC(=O)NC(C)(C)C)ccc21 [CBK281700] | 95%
CC(C)(C)NC(=O)Cn1cncc1-c1cnn(C2CCCCC2)c1 [CBK281701] | 93.5%
CC(Oc1ccc(F)cc1)C(=O)N(C)CC1(C)COC1 (stereo not shown) [CBK281702] | 89.7%
Cc1cc(CN(C)Cc2cnn(-c3ccc(F)cc3)c2)n[nH]1 [CBK281706] | 97.1%
CCC1C(=O)NCCN1C(=O)c1ccc2c(c1)ncn2C (stereo not shown) [CBK281709] | 82.4%
Cc1cc(CN(C)Cc2cn(C)c3cc(F)ccc23)n[nH]1 [CBK281710] | 89.6%
Cc1cc(C)c2cc(C(=O)N(C)CC3(C)COC3)[nH]c2c1 [CBK281711] | 87%
CC(NC(=O)c1cc(C(F)(F)F)[nH]n1)c1ccccn1 (stereo not shown) [CBK281712] | 84.8%
Cc1cc(C)n(C(C)C(=O)NCC2(N(C)C)CCCC2)n1 (stereo not shown) [CBK281713] | 107%
Cc1cccn2cc(C(=O)NC(C)CN3CCCC3)nc12 (stereo not shown) [CBK281714] | 99.6%
Cc1ccc(-c2cc(C(=O)N(C)CC3(C)COC3)[nH]n2)cc1 [CBK281717] | 90.9%
CN(CC1(C)COC1)C(=O)c1ccc2c(c1)ncn2C1CC1 [CBK281718] | 86.8%
Cc1ccc(-n2cc(CN(C)CC3(C)COC3)cn2)cc1 [CBK281720] | 93%
CN(CC1(C)COC1)C(=O)C1CC(=O)N(C(C)(C)C)C1 (stereo not shown) [CBK281724] | 112%
O=C(Cn1cccn1)NC(CN1CCCCC1)c1ccccc1 (stereo not shown) [CBK281726] | 104%
Cc1ccc(-c2cnc(NC(=O)Cn3cccn3)n2C)cc1C [CBK281727] | 102%
CCC1C(=O)NCCN1C(=O)Cc1cccc2cccnc12 (stereo not shown) [CBK281728] | 104%
Cc1nc2ccccn2c1CN1CCC(N2CCCC2)CC1 [CBK281730] | 108%
Cc1nn(C)cc1C(C)NC(=O)c1ccc2c(c1)ncn2C (stereo not shown) [CBK281732] | 103%

Compound | viability at 28.5 h, 10 µM
Cc1cc(C2CCCCCN2C(=O)c2cc(C(C)C)on2)on1 (stereo not shown) [CBK281733] | 79.7%
Cc1cccn2cc(C(=O)N(C)CCn3ccnc3C)nc12 [CBK281735] | 91.7%
CC1CCN(CC(C)(C)n2cncc2-c2cnn(C)c2)CC1 [CBK281738] | 107%
Cc1nn(C)cc1-c1cncn1CC(C)Oc1ccccc1Cl (stereo not shown) [CBK281739] | 83.8%
CCn1cc(-c2cncn2C(CCN(C)C)c2ccccc2)cn1 (stereo not shown) [CBK281741] | 79.2%
CCc1nccn1C(C)C(=O)Nc1ccc2ncn(C)c2c1 (stereo not shown) [CBK281745] | 107%
CN1CCCCC1CC(=O)Nc1ccc2ncn(C)c2c1 (stereo not shown) [CBK281747] | 87.6%
CC1(CNC(=O)c2cc(C3CC3)nc3ccccc23)COC1 [CBK281752] | 90%
CC1(CNC(=O)C2CC(=O)N(C3CCCCC3)C2)COC1 (stereo not shown) [CBK281754] | 97%
CC(CC(=O)NCC1(C)COC1)n1cnc2ccccc21 (stereo not shown) [CBK281755] | 78.1%
CC1(CNC(=O)c2cc(-c3ccc(F)cc3)no2)COC1 [CBK281757] | 84.2%
Cc1cc(C)n(C(C(=O)NCC2(C)COC2)C(C)C)n1 (stereo not shown) [CBK281758] | 85.9%
CCn1cc(-c2cncn2CCCOc2cccc(C)c2)cn1 [CBK281760] | 90.5%
CCn1nc(C)c(-c2cncn2CCCOc2ccccc2C)c1C [CBK281761] | 99.7%
Cc1cccc(OCCCn2cncc2-c2cnn(C)c2)c1 [CBK281763] | 82%
CCn1nc(C)c(-c2cncn2CCn2nc(C)c(Cl)c2C)c1C [CBK281768] | 90.4%
CCn1nc(C)c(-c2cncn2CCCN2CCCCC2)c1C [CBK281769] | 97.6%
Cc1cc(C)n(CCCn2cncc2-c2cnn(C)c2)n1 [CBK281771] | 84.9%
Cc1cc(C)n(CCCn2cncc2-c2ccc3c(c2)CC(C)N3C)n1 (stereo not shown) [CBK281773] | 62%
Cc1nn(C)c(C)c1CCNC(=O)CC1CCCCN1C (stereo not shown) [CBK281774] | 97.6%
CC(C)(CO)CCCn1cncc1-c1cnn(C2CCCCC2)c1 [CBK281779] | 86.7%
Cc1nn(C)cc1-c1cncn1CC(C)N1CCCCC1 (stereo not shown) [CBK281781] | 92.1%
Cc1nn(CCn2cncc2-c2cnn(C)c2)c(C)c1C [CBK281783] | 83.7%
Cn1cc(-c2cncn2CCCOc2ccc(Cl)cc2)cn1 [CBK281784] | 95.2%

Compound | viability at 28.5 h, 10 µM
Cc1nn(C)cc1-c1cncn1CC(C)N1CCC(C)CC1 (stereo not shown) [CBK281789] | 91.4%
Cc1ccc2[nH]c(-c3cncn3C(C)CN3CCOCC3)c(C)c2c1 (stereo not shown) [CBK281794] | 103%
Cc1c(-c2cncn2C(C)CN2CCOCC2)[nH]c2ccccc12 (stereo not shown) [CBK281795] | 99.9%
CCCn1nc(C)c(-c2cncn2CC(C)N2CCCCC2)c1C (stereo not shown) [CBK281802] | 95.7%
CC(=O)NC1(c2ccccc2)CCN(Cc2ccnn2C)CC1 [CBK281805] | 87.8%
Cc1cc(C)n(C2CCN(Cc3cn(C)c4cc(F)ccc34)CC2)n1 [CBK281806] | 112%
CCn1nc(C)c(-c2cncn2CCCC(C)(C)CO)c1C [CBK281807] | 84.4%
Cc1nccn1CCCn1cncc1-c1ccc2c(c1)CC(C)(C)O2 [CBK281809] | 106%
Cc1nccn1CCCn1cncc1-c1ccc2c(c1)CCC(C)N2C (stereo not shown) [CBK281811] | 91%
CC(C)c1nccn1CCCn1cncc1-c1cnn(C)c1 [CBK281812] | 104%
COc1ccc(CCn2cncc2-c2cn(C)nc2C)cc1C [CBK281814] | 102%
CCN1c2ccc(-c3cncn3CC(=O)NC(C)(C)C)cc2CC1C (stereo not shown) [CBK281815] | 95.7%
Cc1nccn1CCCn1cncc1-c1cnn(C2CCCCC2)c1 [CBK281816] | 105%
COc1cccc2cc(-c3cncn3CCCC(C)(C)CO)oc12 [CBK281817] | 112%
Cc1nccn1CCCn1cncc1-c1ccc2c(c1)CC(C)N2C (stereo not shown) [CBK281818] | 87.8%
CC(NC(=O)c1cc2ccc(N(C)C)cc2[nH]1)c1ccccn1 (stereo not shown) [CBK281821] | 80.6%
CC(NC(=O)CCc1nc2ccccc2n1C)c1ccccn1 (stereo not shown) [CBK281823] | 89%
CN(C)c1ccc(CCNC(=O)c2c3c(nn2C)CCCC3)cc1 [CBK281824] | 96.4%
Cc1cc(C(=O)NC(C)c2ccccn2)c2ccccc2n1 (stereo not shown) [CBK281826] | 96.9%
CN(CCN1CCCCC1)C(=O)c1cc2ccc(N(C)C)cc2[nH]1 [CBK281830] | 107%
Cc1ccc(C2(C(=O)N(C)CCN3CCCCC3)CCOCC2)cc1 [CBK281833] | 107%
CCn1c(C)nc2cc(NC(=O)Cc3c(C)noc3C)ccc21 [CBK281834] | 100%
